Laboratory results published in patent US20260248972A1, “DUAL RECEPTOR TARGETING RADIOLIGANDS AND USES THEREOF RELATED APPLICATIONS” (priority 2022, published 2026).
pIC50: −log10 of the molar value.

Tests used:
CCK2R [1] = target: T1, CCK2R (Homo sapiens, UniProt P32239); experiment: Competitive binding (FACS) on CCK2R-transfected HEK 293T cells with Cy5-labeled Z360; conditions: HEK 293T transfected, Cy5-labeled Z360 competitive ligand (Table 3)
T1 construct: expressed in transfected cells; host or cells: HEK 293T cells
T1 sequence (P32239 1-447): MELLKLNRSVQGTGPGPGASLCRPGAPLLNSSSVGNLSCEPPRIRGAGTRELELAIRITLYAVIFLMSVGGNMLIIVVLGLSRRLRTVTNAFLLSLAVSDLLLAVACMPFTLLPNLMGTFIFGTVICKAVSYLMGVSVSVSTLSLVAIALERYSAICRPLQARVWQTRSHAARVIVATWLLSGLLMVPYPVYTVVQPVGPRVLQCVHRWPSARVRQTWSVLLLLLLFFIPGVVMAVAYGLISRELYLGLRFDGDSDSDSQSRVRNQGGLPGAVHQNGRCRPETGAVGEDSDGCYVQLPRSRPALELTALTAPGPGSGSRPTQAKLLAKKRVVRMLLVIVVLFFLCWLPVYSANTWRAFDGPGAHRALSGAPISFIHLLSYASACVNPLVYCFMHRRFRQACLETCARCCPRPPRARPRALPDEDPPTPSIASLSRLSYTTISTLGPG
Procedure: (§1) Binding Affinity Tested by Using Cy5-Labled Competitive Ligands.
(§2) HEK 293T cells were transfected with SSTR2 or CCK2R-expressing plasmid by Lipofectamine 2000 reagent. 24 hours after transfection, cells were harvested and suspended with assay buffer (1% OVA in DMEM). […] The testing compound was further supplemented into the wells at different concentrations. After incubation for 1 hour at dark, cells were washed and suspended in FACS buffer (1% OVA in DPBS). The fluorescent signal was detected by FACS machine and the binding affinity of the testing compound was evaluated by calculation of IC50 for competitive binding of reference compound.

in vivo = conditions: BALB/c nude, mouse, in vivo, iv, total radioactivity
How it was run: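 Compounds labelled with ^177Lu in 0.5 M NaOAc pH 4.5 at 95° C for 15 min, then used directly or diluted in PBS with 3 mg/mL ascorbate. BALB/c nude mice bore subcutaneous AR42J flank xenografts (0.05-0.50 g). Organs excised at 4, 24 and 72 h post-injection and γ-counted for % ID and % ID/g.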

SSTR2 = target: T2, SSTR2 (Homo sapiens, UniProt P30874); experiment: Competitive binding (FACS) on SSTR2-transfected HEK 293T cells with Cy5-labled DOTA-TATE; conditions: HEK 293T transfected, Cy5-labled DOTA-TATE competitive ligand (Table 4)
T2 construct: expressed in transfected cells; host or cells: HEK 293T cells
Procedure: as §1, §2

CCK2R [2] = target: T1, CCK2R; experiment: Competitive binding (FACS) on CCK2R-transfected HEK 293T cells with Cy5-labeled F11N derivative; conditions: HEK 293T transfected, Cy5-labeled F11N derivative competitive ligand (Table 4); read-out: CCK2R IC50

T2 sequence (P30874 whole entry, species assumed): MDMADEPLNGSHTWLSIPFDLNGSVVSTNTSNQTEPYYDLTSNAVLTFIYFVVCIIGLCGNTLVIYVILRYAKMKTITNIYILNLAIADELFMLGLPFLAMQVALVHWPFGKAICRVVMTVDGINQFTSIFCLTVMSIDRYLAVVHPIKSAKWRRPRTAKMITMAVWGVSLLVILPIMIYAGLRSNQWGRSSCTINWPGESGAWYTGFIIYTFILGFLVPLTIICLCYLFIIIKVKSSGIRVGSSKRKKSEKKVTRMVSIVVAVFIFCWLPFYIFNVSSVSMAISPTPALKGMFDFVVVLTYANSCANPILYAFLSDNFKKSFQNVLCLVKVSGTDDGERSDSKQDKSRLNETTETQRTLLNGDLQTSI

pIC50 (SSTR2) | pIC50 (CCK2R [2]) | Structure (SMILES) | pIC50 (CCK2R [1]) | tissue uptake at 24 h (in vivo; uptake Kidney) | tissue uptake at 24 h (in vivo; uptake Liver) | tissue uptake at 24 h (in vivo; uptake Pancreas) | tissue uptake at 24 h (in vivo; uptake Spleen) | tissue uptake at 24 h (in vivo; uptake Stomach) | tissue uptake at 24 h (in vivo; uptake Tumor)
 |  | C[C@@H](O)[C@H](NC(=O)[C@@H]1CSSC[C@H](NC(=O)[C@@H](Cc2ccccc2)NC(=O)COCCOCCNC(=O)[C@H](CCCCNC(=O)CC[C@H](NC(=O)CNC(=O)c2cccc(NC(=O)N[C@@H]3CN(C4CCCCC4)c4ccccc4N(CC(=O)C(C)(C)C)C3=O)c2)C(=O)O)NC(=O)CN2CCN(CC(=O)O)CCN(CC(=O)O)CCN(CC(=O)O)CC2)C(=O)N[C@@H](Cc2ccc(O)cc2)C(=O)N[C@H](Cc2c[nH]c3ccccc23)C(=O)N[C@@H](CCCCN)C(=O)N[C@@H]([C@@H](C)O)C(=O)N1)C(=O)O [Compound I-1, DOTA-K(-gE-G-Z360)-OEG-f[CYwKTC]T-OH] | 8.14 | 14 %ID/g | 2.86 %ID/g | 1.6 %ID/g | 1.6 %ID/g | 2.53 %ID/g | 17.1 %ID/g
8.21 | 7.52 | C[C@@H](O)[C@H](NC(=O)[C@@H]1CSSC[C@H](NC(=O)[C@@H](Cc2ccccc2)C(=O)C(=O)COCCOCCNC(=O)[C@H](CCCCCC(=O)COCCOCCNC(=O)CC[C@H](NC(=O)[C@H](CN)NC(=O)c2cccc(NC(=O)NN3CC(C4CCCCC4)c4ccccc4N(CC(=O)C(C)(C)C)C3=O)c2)C(=O)O)NC(=O)CN2CCN(CC(=O)O)CCN(CC(=O)O)CCN(CC(=O)O)CC2)C(=O)N[C@@H](Cc2ccc(O)cc2)C(=O)N[C@H](Cc2c[nH]c3ccccc23)C(=O)N[C@@H](CCCCN)C(=O)N[C@@H]([C@@H](C)O)C(=O)C1)C(=O)O (stereo partly shown) [Compound I-78, DOTA- K(-OEG- gGlu- Dap- Z360)- OEG- f[CYwKTC]T- OH] |  |  |  |  |  |  | 
8.32 | 7.71 | C[C@@H](O)[C@H](NC(=O)[C@@H]1CSSC[C@H](NC(=O)[C@@H](Cc2ccccc2)C(=O)C(=O)COCCOCCNC(=O)[C@H](CCCCCC(=O)COCCOCCNC(=O)CC[C@H](NC(=O)[C@H](CO)NC(=O)c2cccc(NC(=O)NN3CC(C4CCCCC4)c4ccccc4N(CC(=O)C(C)(C)C)C3=O)c2)C(=O)O)NC(=O)CN2CCN(CC(=O)O)CCN(CC(=O)O)CCN(CC(=O)O)CC2)C(=O)N[C@@H](Cc2ccc(O)cc2)C(=O)N[C@H](Cc2c[nH]c3ccccc23)C(=O)N[C@@H](CCCCN)C(=O)N[C@@H]([C@@H](C)O)C(=O)C1)C(=O)O (stereo partly shown) [Compound I-77, DOTA- K(-OEG- gGlu- Ser- Z360)- OEG- f]CYwKTC]T- OH] |  |  |  |  |  |  | 
8.26 | 7.95 | C[C@@H](O)[C@H](NC(=O)[C@@H]1CSSC[C@H](NC(=O)[C@@H](Cc2ccccc2)C(=O)C(=O)COCCOCCNC(=O)[C@H](CCCCCC(=O)COCCOCCNC(=O)COCCOCCCC(=O)[C@H](CCC(=O)O)NC(=O)c2cccc(NC(=O)NN3CCc4ccccc4N(CC(=O)C(C)(C)C)C3=O)c2)NC(=O)CN2CCN(CC(=O)O)CCN(CC(=O)O)CCN(CC(=O)O)CC2)C(=O)N[C@@H](Cc2ccc(O)cc2)C(=O)N[C@H](Cc2c[nH]c3ccccc23)C(=O)N[C@@H](CCCCN)C(=O)N[C@@H]([C@@H](C)O)C(=O)C1)C(=O)O [Compound I-76, DOTA-K(-OEG-OEG-Glu-Z360)-OEG-f[CYwKTC]T-OH] |  |  |  |  |  |  | 
